Reference: PMC12389581, “Inhibition of Human Coronavirus 229E by Lactoferrin-Derived Peptidomimetics” (Pharmaceutics, 2025)
“And” between values parts separate entries of the source, which are not always exact repeats. Equal entries are not always repeated. Where two headings read alike, the source gives them in different places. Non-standard residues stand in square brackets, D forms with d. Residues, ends and D or L forms follow the SMILES beside them. NMeH = CN[C@@H](Cc1c[nH]cn1)C(=O)O; Gly(N-CH2CH2OH) = O=C(O)CNCCO; NMeL = CN[C@@H](CC(C)C)C(=O)O

Columns and labels:
[1] = molecular target: T1, HCoV-229E spike protein (Human coronavirus 229E, UniProt P15423); test: Microscale thermophoresis (MST) direct binding; details: NT647-labeled spike protein, PBS, triplicate
T1 construct: purchased Acrobiosystems SPN-H52H3
T1 sequence (P15423 16-1173): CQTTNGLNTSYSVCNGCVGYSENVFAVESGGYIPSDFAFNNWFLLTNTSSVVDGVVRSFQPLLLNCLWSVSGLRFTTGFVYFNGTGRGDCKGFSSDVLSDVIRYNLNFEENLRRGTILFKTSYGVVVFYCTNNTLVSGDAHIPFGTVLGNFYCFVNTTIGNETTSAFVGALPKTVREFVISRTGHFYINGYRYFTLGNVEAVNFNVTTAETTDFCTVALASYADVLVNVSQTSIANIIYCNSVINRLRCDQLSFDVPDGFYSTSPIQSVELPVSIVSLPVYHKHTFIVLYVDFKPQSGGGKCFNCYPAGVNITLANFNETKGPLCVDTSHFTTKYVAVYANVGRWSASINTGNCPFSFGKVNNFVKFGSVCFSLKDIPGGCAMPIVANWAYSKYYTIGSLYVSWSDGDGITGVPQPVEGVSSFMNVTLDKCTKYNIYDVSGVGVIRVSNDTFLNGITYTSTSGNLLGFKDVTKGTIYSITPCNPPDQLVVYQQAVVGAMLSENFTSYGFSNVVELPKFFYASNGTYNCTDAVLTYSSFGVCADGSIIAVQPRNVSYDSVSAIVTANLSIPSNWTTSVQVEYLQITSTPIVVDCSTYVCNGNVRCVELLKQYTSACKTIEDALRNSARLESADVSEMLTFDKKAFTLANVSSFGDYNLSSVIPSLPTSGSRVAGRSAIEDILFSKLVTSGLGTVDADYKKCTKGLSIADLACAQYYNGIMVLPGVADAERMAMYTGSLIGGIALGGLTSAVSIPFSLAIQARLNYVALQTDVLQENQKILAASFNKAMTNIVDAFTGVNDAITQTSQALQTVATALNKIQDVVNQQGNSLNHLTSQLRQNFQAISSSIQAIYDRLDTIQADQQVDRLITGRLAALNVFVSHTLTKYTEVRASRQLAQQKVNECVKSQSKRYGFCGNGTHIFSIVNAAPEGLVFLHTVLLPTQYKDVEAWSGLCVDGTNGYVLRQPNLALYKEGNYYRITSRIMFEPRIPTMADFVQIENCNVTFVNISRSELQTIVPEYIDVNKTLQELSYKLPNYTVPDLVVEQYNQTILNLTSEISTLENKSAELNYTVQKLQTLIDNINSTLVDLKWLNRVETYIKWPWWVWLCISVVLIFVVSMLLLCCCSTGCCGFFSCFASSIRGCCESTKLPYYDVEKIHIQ

[2] = molecular target: T1, HCoV-229E spike protein; test: Surface plasmon resonance (SPR) direct binding; details: spike immobilized on CM5 chip, HBS-P+ buffer, 25 °C, 1:1 model, koff/kon
[3] = test system: 229E Coronavirus
[4] = molecular target: T1, HCoV-229E spike protein; test: Nanoscale differential scanning fluorometry (nanoDSF) thermal shift; assay type: binding; details: for ∆Tm: 200 μM compound, 2 μM spike protein, PBS pH 7.4; for Tm: 200 μM peptide, 2 µM protein, ramp 20-95 °C
[5] = test system: Influenza A H1N1 Virus; set-up: method as in earlier work; details: concentration that reduced the cytopathic effect by 50%; cited from earlier work
[6] = concentration that reduced the cytopathic effect by 50%, virus pre-incubated with compound 1 h at 4 °C, compound present 72 h, MRC-5 cells, mean ± standard error of three experiments

Structure (SMILES) | Kd [1] [nM] | Kd [2] [nM] | EC50 [3, 6] | ∆Tm [4] [°C] | Tm [4] [°C] | EC50 ([3]; read-out: EC50, Infection Cycle, compound present during adsorption and entire replication cycle (1 h + 72 h)) [nM] | EC50 [5] [nM]
CC(=O)N[C@@H](CO)C(=O)N[C@@H](CCCCN)C(=O)N[C@@H](Cc1c[nH]cn1)C(=O)N[C@@H](CO)C(N)=O [Compound 2, SKHS] (Ac-SKHS-NH2) | 5120 ± 600 | 41400 ± 870 | 500 ± 2 nM | – | – | – | –
CC(=O)N[C@@H](CO)C(=O)N[C@@H](CCCCN)C(=O)N(C)[C@@H](Cc1c[nH]cn1)C(=O)N[C@@H](CO)C(N)=O [Compound 3, SK(N-Me)HS] (Ac-SK[NMeH]S-NH2) | 390 ± 50 | 416 ± 442 | ~0.031 nM and 0.031 nM | 0.3 | 81.9 | 0.043 | 0.142 ± 0.002
CC(=O)N[C@@H](CO)C(=O)N[C@@H](CCCCN)C(=O)N[C@@H](Cc1c[nH]cn1)C(=O)N(CCO)CC(N)=O [Compound 6, SKHNhS] (Ac-SKH[Gly(N-CH2CH2OH)]-NH2) | 11000 ± 800 | 1510 ± 465 | – | 0.4 | 82.0 | – | 0.5 ± 0.004
CC(=O)N[C@@H](CO)C(=O)N(C)[C@@H](CC(C)C)C(=O)N[C@@H](CC(=O)O)C(=O)N[C@@H](CS)C(N)=O [Compound 4, S(N-Me)LDC] (Ac-S[NMeL]DC-NH2) | 2600 ± 1300 | 1150 ± 182 | – | 0.1 | 81.7 | – | 0.085 ± 0.0004
CC(=O)N[C@@H](CO)C(=O)N[C@@H](CC(C)C)C(=O)N[C@@H](CC(=O)O)C(=O)N[C@@H](CS)C(N)=O [Compound 1, SLDC] (Ac-SLDC-NH2) | 4920 ± 700 | > 50000 | 50 ± 0.4 nM | – | – | – | –
